Among the data in US5527793A, “Antibiotic carbapenem compounds” (Zeneca Limited, priority 1992, dated 1996) are MIC values, retold here.

Structures can show the parent of a compound that is named as a salt.

Common to all, as to assay: MIC by agar-dilution technique, Diagnostic Sensitivity Test
Holding throughout (assay type): cell-based

One assay concerns S. aureus Oxford. The note with it: Staphylococcus aureus, inoculum 10^4 CFU/spot, read-out: minimum inhibitory concentration (MIC). The text has this: (§1) The following results were obtained for representative compounds on a standard in vitro test system using Diagnostic Sensitivity Test. The antibacterial activity is described in terms of the minimum inhibitory concentration (MIC) determined by the agar-dilution technique with an inoculum size of 10^4 CFU/spot.

In assay [1] the test system is Enterobacter cloacae P99-. The note with it: P99, read-out: minimum inhibitory concentration (MIC).
Text: as §1

For another assay, the system named is P. morganii I + 001. The note with it: Morganella morganii, inoculum 10^4 CFU/spot, read-out: minimum inhibitory concentration (MIC).
Text: as §1

Another assay concerns B. fragilis AMP S. The note with it: Bacteroides fragilis, inoculum 10^4 CFU/spot, read-out: minimum inhibitory concentration (MIC).
Text: as §1

A further assay deals with E. coli DCO. The note with it: Escherichia coli, inoculum 10^4 CFU/spot, read-out: minimum inhibitory concentration (MIC).
Text: as §1

As to `C[C@@H](O)[C@H]1C(=O)N2C(C(=O)O)=C(S[C@@H]3CN[C@H](C(=O)Nc4nc(C(=O)O)cs4)C3)[C@H](C)[C@H]12` [Example 2, (1R,5S,6S,8R,2'S,4'S)-2-(2-(4-Carboxy-2-thiazolylcarbamoyl)pyrrolidin-4-ylthio)-6-(1-hydroxyethyl)71-methylcarbapenem-3-carboxylic acid, disodium salt], the MIC was found to be 0.25 µg/mL in the assay with S. aureus Oxford; 0.03 µg/mL in assay [1]; 0.03 µg/mL in the assay on P. morganii I + 001; 0.5 µg/mL in the assay on B. fragilis AMP S; 0.03 µg/mL with E. coli DCO.
